Read-outs that look alike come from different tables or passages of the source.
Columns and labels:
Test in all cases: TGFα-shedding assay-based GPCR screening with chimeric Gα subunit proteins
Format in all cases: cell-based
348 GPCRs [1] = target: T1, 348 GPCRs (Homo sapiens, UniProt P30939); settings: 5-HT1F (5-hydroxytryptamine receptor 1F); 10µM, Favipiravir 100μM
T1 construct: expressed in transfected cells; host or cells: HEK293A
T1 sequence (P30939 1-366): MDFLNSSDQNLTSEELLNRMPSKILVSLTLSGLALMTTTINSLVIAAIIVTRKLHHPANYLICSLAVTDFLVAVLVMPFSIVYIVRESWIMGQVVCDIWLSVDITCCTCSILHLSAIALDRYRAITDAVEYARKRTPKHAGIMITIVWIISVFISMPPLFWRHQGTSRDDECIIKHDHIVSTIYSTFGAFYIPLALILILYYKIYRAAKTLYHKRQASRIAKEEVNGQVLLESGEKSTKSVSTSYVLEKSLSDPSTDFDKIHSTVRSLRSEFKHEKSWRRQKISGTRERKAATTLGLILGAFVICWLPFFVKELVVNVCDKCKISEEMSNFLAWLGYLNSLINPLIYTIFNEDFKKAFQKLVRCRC

348 GPCRs [2] = target: T2, 348 GPCRs (Homo sapiens, UniProt Q8NGU9); settings: 10µM, Favipiravir 100μM
T2 construct: expressed in transfected cells; host or cells: HEK293A
T2 sequence (Q8NGU9 whole entry): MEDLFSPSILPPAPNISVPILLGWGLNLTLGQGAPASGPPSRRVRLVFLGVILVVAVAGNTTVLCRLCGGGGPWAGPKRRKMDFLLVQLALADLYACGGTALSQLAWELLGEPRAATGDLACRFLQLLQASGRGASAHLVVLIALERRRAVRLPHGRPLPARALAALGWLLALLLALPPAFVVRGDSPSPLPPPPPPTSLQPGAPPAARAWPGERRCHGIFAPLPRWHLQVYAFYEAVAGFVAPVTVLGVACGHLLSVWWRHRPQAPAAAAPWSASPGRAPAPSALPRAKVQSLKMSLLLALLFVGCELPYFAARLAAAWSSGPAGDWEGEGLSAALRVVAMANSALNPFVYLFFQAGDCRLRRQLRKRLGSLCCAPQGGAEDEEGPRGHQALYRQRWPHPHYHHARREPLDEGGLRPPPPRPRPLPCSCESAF

348 GPCRs [3] = target: T3, 348 GPCRs (Homo sapiens, UniProt Q9NYM4); settings: 10µM, Favipiravir 100μM
T3 construct: expressed in transfected cells; host or cells: HEK293A
T3 sequence (Q9NYM4 17-423): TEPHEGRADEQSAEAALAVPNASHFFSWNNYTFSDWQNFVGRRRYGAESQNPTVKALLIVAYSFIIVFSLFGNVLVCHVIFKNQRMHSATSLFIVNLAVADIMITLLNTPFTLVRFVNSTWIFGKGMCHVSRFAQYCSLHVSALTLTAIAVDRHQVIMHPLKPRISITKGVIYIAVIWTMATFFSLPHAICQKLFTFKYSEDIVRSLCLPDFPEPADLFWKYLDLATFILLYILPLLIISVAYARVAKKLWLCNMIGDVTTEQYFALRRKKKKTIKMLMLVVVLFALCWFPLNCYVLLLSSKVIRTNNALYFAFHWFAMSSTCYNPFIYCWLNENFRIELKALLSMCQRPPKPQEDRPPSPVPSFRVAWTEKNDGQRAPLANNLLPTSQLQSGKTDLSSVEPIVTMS

348 GPCRs [4] = target: T4, 348 GPCRs (Homo sapiens, UniProt Q96RJ0); settings: 10µM, Favipiravir 100μM
T4 construct: expressed in transfected cells; host or cells: HEK293A
T4 sequence (Q96RJ0 1-339): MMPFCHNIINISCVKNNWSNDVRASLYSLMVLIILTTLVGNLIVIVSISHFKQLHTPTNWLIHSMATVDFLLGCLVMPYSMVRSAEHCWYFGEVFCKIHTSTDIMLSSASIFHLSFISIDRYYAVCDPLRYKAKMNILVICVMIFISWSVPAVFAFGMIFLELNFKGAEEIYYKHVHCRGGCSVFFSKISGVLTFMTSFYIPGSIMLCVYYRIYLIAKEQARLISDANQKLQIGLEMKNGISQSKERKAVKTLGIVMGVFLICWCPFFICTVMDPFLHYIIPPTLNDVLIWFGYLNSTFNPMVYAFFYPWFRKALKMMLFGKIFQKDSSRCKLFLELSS

348 GPCRs [5] = target: 348 GPCRs (Homo sapiens, UniProt P31391); settings: 10µM, Favipiravir 100μM
Sequence of 348 GPCRs (Homo sapiens, UniProt P31391) (P31391 whole entry): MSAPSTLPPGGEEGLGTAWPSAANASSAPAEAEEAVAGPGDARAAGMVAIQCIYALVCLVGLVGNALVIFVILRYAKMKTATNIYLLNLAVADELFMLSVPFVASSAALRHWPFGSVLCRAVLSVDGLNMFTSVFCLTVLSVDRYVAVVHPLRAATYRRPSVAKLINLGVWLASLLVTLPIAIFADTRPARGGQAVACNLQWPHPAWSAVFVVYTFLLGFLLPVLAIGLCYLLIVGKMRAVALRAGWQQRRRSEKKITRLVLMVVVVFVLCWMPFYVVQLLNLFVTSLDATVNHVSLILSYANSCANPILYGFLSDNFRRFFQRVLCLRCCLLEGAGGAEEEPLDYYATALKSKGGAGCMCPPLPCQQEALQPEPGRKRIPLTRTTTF

348 GPCRs [6] = target: T5, 348 GPCRs (Homo sapiens, UniProt P49682)
T5 construct: expressed in transfected cells; host or cells: HEK293A
T5 sequence (P49682 1-368): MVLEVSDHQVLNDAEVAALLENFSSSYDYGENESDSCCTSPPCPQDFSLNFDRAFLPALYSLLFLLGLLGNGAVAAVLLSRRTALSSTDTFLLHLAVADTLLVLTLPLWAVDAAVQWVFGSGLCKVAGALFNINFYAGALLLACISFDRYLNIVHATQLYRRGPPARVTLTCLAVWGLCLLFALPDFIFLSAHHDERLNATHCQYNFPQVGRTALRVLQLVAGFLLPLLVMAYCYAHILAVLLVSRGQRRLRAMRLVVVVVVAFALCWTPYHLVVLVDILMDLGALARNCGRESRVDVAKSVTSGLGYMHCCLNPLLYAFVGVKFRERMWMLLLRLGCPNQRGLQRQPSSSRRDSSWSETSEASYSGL

348 GPCRs [7] = target: T6, 348 GPCRs (Homo sapiens, UniProt P32239); settings: 10µM, Favipiravir 100μM
T6 sequence (P32239 1-447): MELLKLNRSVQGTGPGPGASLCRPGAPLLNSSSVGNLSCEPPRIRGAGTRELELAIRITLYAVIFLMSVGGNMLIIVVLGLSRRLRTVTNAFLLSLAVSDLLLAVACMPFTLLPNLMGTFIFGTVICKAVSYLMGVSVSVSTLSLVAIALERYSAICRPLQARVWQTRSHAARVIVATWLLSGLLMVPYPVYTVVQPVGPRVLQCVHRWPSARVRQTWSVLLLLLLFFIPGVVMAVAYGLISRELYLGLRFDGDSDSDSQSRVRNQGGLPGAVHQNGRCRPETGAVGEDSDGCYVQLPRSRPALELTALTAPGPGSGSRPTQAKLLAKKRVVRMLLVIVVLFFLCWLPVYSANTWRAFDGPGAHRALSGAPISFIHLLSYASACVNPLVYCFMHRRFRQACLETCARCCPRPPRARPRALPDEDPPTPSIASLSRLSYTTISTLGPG

348 GPCRs [8] = target: T7, 348 GPCRs (Homo sapiens, UniProt Q99677); settings: LPAR4 (lysophosphatidic acid receptor 4); 10µM, Favipiravir 100μM
T7 construct: expressed in transfected cells; host or cells: HEK293A
T7 sequence (Q99677 whole entry): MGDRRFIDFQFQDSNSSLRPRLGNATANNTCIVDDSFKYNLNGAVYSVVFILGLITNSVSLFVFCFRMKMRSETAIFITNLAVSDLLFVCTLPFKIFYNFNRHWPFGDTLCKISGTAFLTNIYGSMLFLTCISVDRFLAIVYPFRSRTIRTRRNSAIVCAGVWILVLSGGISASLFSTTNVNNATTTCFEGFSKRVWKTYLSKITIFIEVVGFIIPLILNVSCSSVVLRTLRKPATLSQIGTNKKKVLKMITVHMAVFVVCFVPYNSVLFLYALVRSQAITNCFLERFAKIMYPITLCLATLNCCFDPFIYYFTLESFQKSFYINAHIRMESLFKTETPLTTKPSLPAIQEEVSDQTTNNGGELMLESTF

348 GPCRs [9] = target: T8, 348 GPCRs (Homo sapiens, UniProt Q9NS66); settings: 10µM, Favipiravir 100μM
T8 construct: expressed in transfected cells; host or cells: HEK293A
T8 sequence (Q9NS66 whole entry): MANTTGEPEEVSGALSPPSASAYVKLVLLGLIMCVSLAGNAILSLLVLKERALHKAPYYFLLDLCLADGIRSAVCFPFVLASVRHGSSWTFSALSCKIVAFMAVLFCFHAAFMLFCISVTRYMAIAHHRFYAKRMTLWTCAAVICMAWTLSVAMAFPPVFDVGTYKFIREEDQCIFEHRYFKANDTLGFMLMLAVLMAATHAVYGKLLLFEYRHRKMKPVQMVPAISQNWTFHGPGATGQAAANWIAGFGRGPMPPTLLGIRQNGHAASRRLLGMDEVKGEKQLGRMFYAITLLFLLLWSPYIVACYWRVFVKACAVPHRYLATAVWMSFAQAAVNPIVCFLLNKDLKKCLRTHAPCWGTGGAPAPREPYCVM

348 GPCRs [10] = target: 348 GPCRs (Homo sapiens, UniProt P21453); settings: 10µM, Favipiravir 100μM
Sequence of 348 GPCRs (Homo sapiens, UniProt P21453) (P21453 whole entry): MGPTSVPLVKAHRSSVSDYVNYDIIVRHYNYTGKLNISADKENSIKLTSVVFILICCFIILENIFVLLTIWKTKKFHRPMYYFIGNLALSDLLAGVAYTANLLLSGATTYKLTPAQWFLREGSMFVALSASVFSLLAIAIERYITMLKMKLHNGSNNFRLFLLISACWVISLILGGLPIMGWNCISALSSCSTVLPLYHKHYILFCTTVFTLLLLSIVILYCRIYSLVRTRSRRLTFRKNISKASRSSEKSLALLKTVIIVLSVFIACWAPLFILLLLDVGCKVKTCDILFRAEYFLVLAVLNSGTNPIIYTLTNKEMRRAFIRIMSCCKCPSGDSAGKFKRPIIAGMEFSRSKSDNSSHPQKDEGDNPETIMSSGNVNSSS

348 GPCRs [11] = target: T9, 348 GPCRs (Homo sapiens, UniProt P47890); settings: 10µM, Favipiravir 100μM
T9 construct: expressed in transfected cells; host or cells: HEK293A
T9 sequence (P47890 1-313): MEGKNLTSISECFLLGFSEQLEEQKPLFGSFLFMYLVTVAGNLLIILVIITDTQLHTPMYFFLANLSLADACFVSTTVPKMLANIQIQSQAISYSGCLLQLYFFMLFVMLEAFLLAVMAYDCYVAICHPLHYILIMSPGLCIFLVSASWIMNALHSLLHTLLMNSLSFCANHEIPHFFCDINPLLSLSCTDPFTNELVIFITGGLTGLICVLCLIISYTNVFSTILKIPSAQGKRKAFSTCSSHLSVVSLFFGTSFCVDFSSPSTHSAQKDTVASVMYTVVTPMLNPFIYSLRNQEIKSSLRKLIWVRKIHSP

[12] = GPR150 (G protein-coupled receptor 150), read-out: % GPCR activation compared to TPA
[13] = GPR83 (G Protein-Coupled Receptor 83), read-out: % GPCR activation compared to TPA
[14] = TA1 (trace amine associated receptor 1), read-out: % GPCR activation compared to TPA
[15] = SSTR4 (somatostatin receptor 4), read-out: % GPCR activation compared to TPA
[16] = GPCR CXCR3 (C-X-C motif chemokine receptor 3), read-out: % GPCR activation compared to TPA
[17] = CCKBR (cholecystokinin B receptor), read-out: % GPCR activation compared to TPA
[18] = GPR173 (G protein-coupled receptor 173), read-out: % GPCR activation compared to TPA
[19] = S1PR1 (sphingosine-1-phosphate receptor 1), read-out: % GPCR activation compared to TPA
[20] = OR1G1 (olfactory receptor, family 1, subfamily G, member 1), read-out: % GPCR activation compared to TPA
[21] = read-out: % GPCR activation compared to TPA, GPR150 (G protein-coupled receptor 150)
[22] = read-out: % GPCR activation compared to TPA, GPR83 (G Protein-Coupled Receptor 83)
[23] = read-out: % GPCR activation compared to TPA, TA1 (trace amine associated receptor 1)
[24] = read-out: % GPCR activation compared to TPA, SSTR4 (somatostatin receptor 4)
[25] = read-out: % GPCR activation compared to TPA, GPCR CXCR3 (C-X-C motif chemokine receptor 3)
[26] = read-out: % GPCR activation compared to TPA, CCKBR (cholecystokinin B receptor)
[27] = read-out: % GPCR activation compared to TPA, GPR173 (G protein-coupled receptor 173)
[28] = read-out: % GPCR activation compared to TPA, S1PR1 (sphingosine-1-phosphate receptor 1)
[29] = read-out: % GPCR activation compared to TPA, OR1G1 (olfactory receptor, family 1, subfamily G, member 1)

SMILES | % GPCR activation compared to TPA (348 GPCRs [1]) [%] | activation at 100 µM (348 GPCRs [2]; [12]) [%] | activation at 100 µM (348 GPCRs [3]; [13]) [%] | activation at 100 µM (348 GPCRs [4]; [14]) [%] | activation at 10 µM (348 GPCRs [5]; [15]) [%] | activation at 10 µM (348 GPCRs [6]; [16]) [%] | activation at 100 µM (348 GPCRs [7]; [17]) [%] | % GPCR activation compared to TPA (348 GPCRs [8]) [%] | activation at 10 µM (348 GPCRs [9]; [18]) [%] | activation at 10 µM (348 GPCRs [10]; [19]) [%] | activation at 10 µM (348 GPCRs [11]; [20]) [%] | activation at 100 µM (348 GPCRs [2]; [21]) [%] | activation at 100 µM (348 GPCRs [3]; [22]) [%] | activation at 100 µM (348 GPCRs [4]; [23]) [%] | activation at 10 µM (348 GPCRs [5]; [24]) [%] | activation at 10 µM (348 GPCRs [6]; [25]) [%] | activation at 100 µM (348 GPCRs [7]; [26]) [%] | activation at 10 µM (348 GPCRs [9]; [27]) [%] | activation at 10 µM (348 GPCRs [10]; [28]) [%] | activation at 10 µM (348 GPCRs [11]; [29]) [%] | further results
CC(C)C(=O)OC[C@H]1O[C@@H](n2ccc(NO)nc2=O)[C@H](O)[C@@H]1O [molnupiravir] | 0.7188 | -6.13 | -2.02 | -2.64 | -1.09 | -2.3 | -2.83 | -0.2125 | -4.49 | -2.19 | -3.31 | – | – | – | – | – | – | – | – | – | –
CCC(CC)COC(=O)[C@H](C)N[P@](=O)(OC[C@H]1O[C@@](C#N)(c2ccc3c(N)ncnn23)[C@H](O)[C@@H]1O)Oc1ccccc1 [remdesivir] | -2.148 | – | – | – | – | – | – | -0.0834 | – | – | – | 6.96 | -2.36 | -1.76 | 0.732 | -0.708 | 7.72 | 1.49 | -1.92 | -1.69 | –
CC(C)OC(=O)[C@H](C)N[P@](=O)(OC[C@H]1O[C@@H](n2ccc(=O)[nH]c2=O)[C@](C)(F)[C@@H]1O)Oc1ccccc1 [sofosbuvir] | -0.8157 | – | – | – | – | – | – | 3.133 | – | – | – | 0.239 | -0.627 | -1.12 | 0.279 | -2.03 | -2.44 | -0.581 | 0.0873 | -2.98 | –

Continued, in another order:

% GPCR activation compared to TPA (348 GPCRs [1]) [%] | activation at 100 µM (348 GPCRs [2]; [12]) [%] | activation at 100 µM (348 GPCRs [3]; [13]) [%] | activation at 100 µM (348 GPCRs [4]; [14]) [%] | activation at 10 µM (348 GPCRs [5]; [15]) [%] | activation at 10 µM (348 GPCRs [6]; [16]) [%] | activation at 100 µM (348 GPCRs [7]; [17]) [%] | % GPCR activation compared to TPA (348 GPCRs [8]) [%] | activation at 10 µM (348 GPCRs [9]; [18]) [%] | activation at 10 µM (348 GPCRs [10]; [19]) [%] | activation at 10 µM (348 GPCRs [11]; [20]) [%] | SMILES | activation at 100 µM (348 GPCRs [2]; [21]) [%] | activation at 100 µM (348 GPCRs [3]; [22]) [%] | activation at 100 µM (348 GPCRs [4]; [23]) [%] | activation at 10 µM (348 GPCRs [5]; [24]) [%] | activation at 10 µM (348 GPCRs [6]; [25]) [%] | activation at 100 µM (348 GPCRs [7]; [26]) [%] | activation at 10 µM (348 GPCRs [9]; [27]) [%] | activation at 10 µM (348 GPCRs [10]; [28]) [%] | activation at 10 µM (348 GPCRs [11]; [29]) [%] | further results
0.3563 | 0.708 | -1.11 | -1.3 | -0.36 | -3.08 | 6.14 | 1.193 | 0.119 | -1.43 | -1.68 | N#C[C@@]1(c2ccc3c(N)ncnn23)O[C@H](CO)[C@@H](O)[C@H]1O [GS441524] | – | – | – | – | – | – | – | – | – | –
1.629 | -0.462 | -2.15 | -2.98 | -0.164 | – | 4.12 | -0.5456 | 0.0591 | -0.836 | 0.965 | NC(=O)c1nc(F)cnc1O [favipiravir, 6-fluoro-3-hydroxy-2-pyrazinecarboxamide] | – | – | – | – | – | – | – | – | – | activation at 100 µM (348 GPCRs [6]; GPCR CXCR3 (C-X-C motif chemokine receptor 3), 100μM, read-out: % GPCR activation compared to TPA): -0.62%

— paper PMC10175918 (Communications Biology, 2023)
